Test results as given in patent US8772029B2, “Modulation of oocyte meiotic progression and oocyte activation” (Northwestern University, priority 2011, dated 2014).
“Also recorded” adds a separate entry of the source.

System: GV oocytes
Test: TPEN treatment of PDE-inhibitor arrested GV oocytes
Assay type: cell-based
Description: In certain embodiments, zinc modulation is useful for overcoming earlier meiotic arrests. Normally, treatment of GV stage oocytes with broad-spectrum or PDE3-specific phosphodiesterase (PDE) inhibitors results in maintenance of GV arrest due to elevated cAMP levels. […] As such, limiting zinc availability could also be used to overcome GV arrest and allow progression through GVBD in clinical cases of GV arrest. The methods of the present invention are also useful as a secondary treatment for oocytes that remain GV arrested following conventional in vitro maturation, and could be of particular value for use in conjunction with in vitro follicle culture systems currently being developed for use in fertility preservation programs for patients undergoing fertility-threatening cancer treatments, in which methods for overcoming GV arrest are necessary (Xu et al 2006).

c1ccc(CN(CCN(Cc2ccccn2)Cc2ccccn2)Cc2ccccn2)nc1 [TPEN, N,N,N′,N′-tetrakis(2-pyridylmethyl)ethylenediamine]
progression to MII after transfer back to zinc replete medium (PDE-inhibitor arrested GV oocytes that resumed meiosis under TPEN): a proportion of these oocytes progress to MII | meiotic resumption of GV-arrested oocytes (oocytes held at GV stage with phosphodiesterase inhibitors, TPEN treatment): premature GV breakdown (GVBD) and meiotic progression; also recorded: premature meiotic progression and GV breakdown (GVBD)
